Experimental data as given in PMC11997985, “Synthesis and In Vitro Profiling of Psilocin Derivatives: Improved Stability and Synthetic Properties” (Journal of Medicinal Chemistry, 2025).

How the values were obtained:
[1] = Solid solubility assay, phosphate buffer pH 7.4; format: physicochemical; conditions: phosphate buffer pH 7.4, dry substance
[2] = mice dosed with psilocybin or 4-AcO–DMT; cited from earlier work

SMILES	solubility at 24 h [1]	psilocin exposure compared with psilocybin [2]
CN(C)CCc1c[nH]c2cccc(OP(=O)(O)O)c12 [Compound 8, 4-phosphoryloxy-N,N-dimethyltryptamine, reference compound]	> 1000 µM	–
CC(=O)Oc1cccc2[nH]cc(CCN(C)C)c12.O=C(O)/C=C/C(=O)O [Compound 4a, 4-acetoxy-N,N-dimethyltryptamine]	–	nonsignificant difference in psilocin exposure
